PMC3177827 (PLoS ONE, 2011)
“Also recorded” adds a separate entry of the source. The star is where a group is joined. pNA = O=[N+]([O-])c1ccc(N*)cc1; Cbz = O=C(OCc1ccccc1)*

What was measured:
[1] = PAN-8 (Bifidobacterium dentium HOT-588) bacterial suspension in saliva ion buffer; settings: up to 24 h
[2] = WSAN-14 (Bifidobacterium longum HOT-B54) bacterial suspension in saliva ion buffer; settings: up to 24 h
[3] = mixed human dental plaque bacteria; settings: cited from earlier work
[4] = WSA-26 (Rothia mucilaginosa HOT-681) bacterial suspension in saliva ion buffer; settings: up to 24 h
[5] = WSA-7A (Streptococcus mitis HOT-677) bacterial suspension in saliva ion buffer; settings: up to 24 h
[6] = WSAN-24 (Bifidobacterium longum HOT-B54) bacterial suspension in saliva ion buffer; settings: up to 24 h
[7] = PAN-23 (Bifidobacterium dentium HOT-588) bacterial suspension in saliva ion buffer; settings: up to 24 h
[8] = PAN-5 (Bifidobacterium dentium HOT-588) bacterial suspension in saliva ion buffer; settings: up to 24 h
[9] = WSA-10 (Staphylococcus epidermidis HOT-601) bacterial suspension in saliva ion buffer; settings: up to 24 h
[10] = WSAN-16 (Bifidobacterium longum HOT-B54) bacterial suspension in saliva ion buffer; settings: up to 24 h
[11] = WSA-8 (Rothia aeria HOT-188) bacterial suspension in saliva ion buffer; settings: up to 24 h
[12] = bacterial suspension in saliva ion buffer (OD620 1.2); settings: up to 24 h
[13] = WSA-2B (Rothia mucilaginosa HOT-681) bacterial suspension in saliva ion buffer; settings: up to 24 h
[14] = WSAN-25 (Veilonella atypica HOT-524) bacterial suspension in saliva ion buffer; settings: up to 24 h
[15] = PAN-19 (Bifidobacterium dentium HOT-588) bacterial suspension in saliva ion buffer; settings: up to 24 h
[16] = Whole plaque (Mixture of bacteria) suspension in saliva ion buffer; settings: human, up to 24 h
[17] = PAN-0 (Streptococcus pneumoniae HOT-734) bacterial suspension in saliva ion buffer; settings: up to 24 h
[18] = PAN-18 (Bifidobacterium dentium HOT-588) bacterial suspension in saliva ion buffer; settings: up to 24 h
trypsin = trypsin (1 µg/ml in 50 mM ammonium bicarbonate, pH 8.0); settings: up to 24 h
chymotrypsin = chymotrypsin (1 µg/ml in 50 mM ammonium bicarbonate, pH 8.0); settings: up to 24 h
mammalian enzymes = settings: cited from earlier work
pepsin = pepsin (1 µg/ml in 0.1 M HCl, pH 1.0); settings: up to 24 h
[19] = strain WSA-8 (R. aeria) in saliva ion buffer (OD620 1.2, pH 7.0); settings: Rothia aeria, up to 5 h
[20] = Bifidobacterium dentium HOT-588 (strain PAN-5)
[21] = Bifidobacterium dentium HOT-588 (strain PAN-8)
[22] = Bifidobacterium dentium HOT-588 (strain PAN-18)
[23] = Bifidobacterium dentium HOT-588 (strain PAN-19)
[24] = Bifidobacterium dentium HOT-588 (strain PAN-23)
[25] = Bifidobacterium longum HOT-B54 (strain WSAN-14)
[26] = Bifidobacterium longum HOT-B54 (strain WSAN-16)
[27] = Bifidobacterium longum HOT-B54 (strain WSAN-24)
[28] = Rothia aeria HOT-188 (strain WSA-8)
[29] = Rothia mucilaginosa HOT-681 (strain WSA-2B)
[30] = Rothia mucilaginosa HOT-681 (strain WSA-26)
[31] = Staphylococcus epidermidis HOT-601 (strain WSA-10)
[32] = Streptococcus mitis HOT-677 (strain WSA-7A)
[33] = Streptococcus pneumoniae HOT-734 (strain PAN-0)
[34] = Veilonella atypica HOT-524 (strain WSAN-25)

not cleaved [1] | not cleaved [2] | not cleaved [4] | not cleaved [5] | not cleaved [6] | not cleaved [7] | not cleaved [8] | not cleaved [9] | not cleaved [10] | not cleaved [11] | not cleaved [12, 20] | not cleaved [12, 21] | not cleaved [12, 22] | not cleaved [12, 23] | not cleaved [12, 24] | not cleaved [12, 25] | not cleaved [12, 26] | not cleaved [12, 27] | cleaved bond [16] | Substance | cleaved bond [3] | further results
− after 24 h incubation | − after 24 h incubation | − after 24 h incubation | − after 24 h incubation | − after 24 h incubation | − after 24 h incubation | − after 24 h incubation | − after 24 h incubation | − after 24 h incubation | − after 24 h incubation | − after 24 h | − after 24 h | − after 24 h | − after 24 h | − after 24 h | − after 24 h | − after 24 h | − after 24 h | F-pNA | Cbz-Pro-Pro-Phe-pNA | F-pNA | not cleaved [12, 28]: − (not cleaved) after 24 h; not cleaved [12, 29]: − (not cleaved) after 24 h; not cleaved [12, 30]: − (not cleaved) after 24 h; not cleaved [12, 31]: − after 24 h; not cleaved [12, 32]: − after 24 h; not cleaved [12, 33]: − after 24 h; not cleaved [12, 34]: − after 24 h; not cleaved [13]: − after 24 h incubation; not cleaved [14]: − after 24 h incubation; not cleaved [15]: − after 24 h incubation; not cleaved [17]: − after 24 h incubation; not cleaved [18]: − after 24 h incubation
− after 24 h incubation | − after 24 h incubation | − after 24 h incubation | − after 24 h incubation | − after 24 h incubation | − after 24 h incubation | − after 24 h incubation | − after 24 h incubation | − after 24 h incubation | − after 24 h incubation | − after 24 h | − after 24 h | − after 24 h | − after 24 h | − after 24 h | − after 24 h | − after 24 h | − after 24 h | P-pNA | Cbz-Gln-Gln-Pro-pNA | P-pNA | not cleaved [12, 28]: − (not cleaved) after 24 h; not cleaved [12, 29]: − (not cleaved) after 24 h; not cleaved [12, 30]: − (not cleaved) after 24 h; not cleaved [12, 31]: − after 24 h; not cleaved [12, 32]: − after 24 h; not cleaved [12, 33]: − after 24 h; not cleaved [12, 34]: − after 24 h; not cleaved [13]: − after 24 h incubation; not cleaved [14]: − after 24 h incubation; not cleaved [15]: − after 24 h incubation; not cleaved [17]: − after 24 h incubation; not cleaved [18]: − after 24 h incubation

Continued, substance first:

Substance | not cleaved [1] | not cleaved [2] | not cleaved [4] | not cleaved [5] | not cleaved [6] | not cleaved [7] | not cleaved [8] | not cleaved [9] | not cleaved [10] | not cleaved [11] | not cleaved [12, 20] | not cleaved [12, 21] | not cleaved [12, 22] | not cleaved [12, 23] | not cleaved [12, 24] | not cleaved [12, 25] | not cleaved [12, 26] | not cleaved [12, 27] | cleaved bond [16] | cleaved bond [3] | further results
Cbz-Pro-Phe-Pro-pNA | − after 24 h incubation | − after 24 h incubation | − after 24 h incubation | − after 24 h incubation | − after 24 h incubation | − after 24 h incubation | − after 24 h incubation | − after 24 h incubation | − after 24 h incubation | − after 24 h incubation | − after 24 h | − after 24 h | − after 24 h | − after 24 h | − after 24 h | − after 24 h | − after 24 h | − after 24 h | P-pNA | P-pNA | not cleaved [12, 28]: − (not cleaved) after 24 h; not cleaved [12, 29]: − (not cleaved) after 24 h; not cleaved [12, 30]: − (not cleaved) after 24 h; not cleaved [12, 31]: − after 24 h; not cleaved [12, 32]: − after 24 h; not cleaved [12, 33]: − after 24 h; not cleaved [12, 34]: − after 24 h; not cleaved [13]: − after 24 h incubation; not cleaved [14]: − after 24 h incubation; not cleaved [15]: − after 24 h incubation; not cleaved [17]: − after 24 h incubation; not cleaved [18]: − after 24 h incubation
benzyloxycarbonyl-YPQ-paranitroanilide |  |  |  |  |  |  |  |  |  |  |  |  |  |  |  |  |  |  | Q-pNA | Q-pNA | cleaved bond [4]: Q-pNA; cleaved bond [5]: Q-pNA; cleaved bond [11]: Q-pNA; cleaved bond [13]: Q-pNA
FLQPQQPFPQQPQQPYPQQPQQPFPQ |  |  |  |  |  |  |  |  |  |  |  |  |  |  |  |  |  |  |  |  | not cleaved (trypsin): resistant to degradation; sampled at t = 24 h; not cleaved (chymotrypsin): resistant to degradation; sampled at t = 24 h; not cleaved (mammalian enzymes): resistant to degradation by mammalian enzymes; not cleaved (pepsin): resistant to degradation; sampled at t = 24 h; cleaved bond [19]: Y-P, major
LQLQPFPQPQLPYPQPQLPYPQPQLPYPQPQPF |  |  |  |  |  |  |  |  |  |  |  |  |  |  |  |  |  |  |  |  | not cleaved (trypsin): resistant to degradation; sampled at t = 24 h; not cleaved (chymotrypsin): resistant to degradation; sampled at t = 24 h; not cleaved (mammalian enzymes): resistant to degradation by mammalian enzymes; not cleaved (pepsin): resistant to degradation; sampled at t = 24 h; cleaved bond [19]: F-P, minor; also recorded: P-Q, minor; also recorded: Q-L, major; also recorded: Y-P, major; also recorded: Q-P, major
Cbz-Lys-Pro-Gln-pNA |  |  |  |  |  |  |  |  |  |  |  |  |  |  |  |  |  |  |  |  | cleaved bond [11]: Q-pNA; cleaved bond [13]: Q-pNA
